# Assay results as given in patent US5023358A, “Vanadyl organo-mineral compound, method for obtaining such a compound, pharmaceutical composition containing this organo-mineral compound” (Panmedica S.A., priority 1987, dated 1991).
# Assays:
# Na^+ /K^+ ATP ase enzyme = conditions: absorption mechanisms; cited from earlier work
# insulin receptor = conditions: intra-cellular, vanadyl (V^4+) form; cited from earlier work
# diabetic rats [1] = assay: Glycemia of diabetic (streptozotocin) and non-diabetic rats after a unique oral administration; format: in vivo, rat
# Excerpt: Then, the anti-diabetic activity of the above described complex of vanadyl and cystein has been examined.
# The examination has been performed also starting from the compound with the formula (II). The activity of this compound has been compared on diabetic rats and on non-diabetic rats, and the activity of this compound (II) has be compared with that of the vanadyl sulfate.
# Tests have been carried out on animals having a glycemia higher than 3 g/l.
# The method is as follows. Diabetes is induced by intraveinous injection of a unique dose of streptozotocin of about 50 mg/kg, on male or female rats of the WISTAR strain with a mean weight of 200 g. The glycemia is measured 4 days after the injection.
# The procedure of the pharmacological tests is as follows. A quantity of 45 mg/kg of compound (II) is administered by forcible feeding (doses of 10 ml/kg) to animals which have been fed, in the form of a suspension in a 3% solution of gum arabic. A dose of vanadyl sulfate equimolar to 45 mg/kg of compound (II) is administered.
# The glycemia is measured by quantitative analysis. Blood is sampled from the tail of the animal. The glycemia is measured by means of a device named "AMES glucometer" (trade-mark). The rate of glycemia is read on "Derotrostix" dipsticks (trade-mark) of the aforesaid device.
# diabetic rats [2] = conditions: oral, cited from earlier work
# [3] = test system: male rats of the WISTAR strain; format: in vivo; conditions: oral, rat
# Excerpt: First, the potential toxicity of the complex has been investigated.
# The investigation has been carried out starting from the bimolecular vanadyl compound having one free amin group, of the general formula (II). After a unique oral administration to the rat, the measured toxicity of the compound of formula (II) on the one hand and of the vanadyl sulfate on the other hand have been compared.
# The procedure of the toxicological tests is as follows.
# On the one hand, the toxicity of the compound (II) is examined by administering orally increasing doses of compound (II), up to 1 g/kg, to a group of 10 male rats of the WISTAR strain with a mean weight of 150 g. A quantity of 10 ml/kg of a suspension of compound (II) in 3% gum arabic is administered, by forcible feeding, to animals which have not been fed. Then, the animals are examined for 14 days, in order to count for the deaths and to search and observe the signs of toxicity.
# On the other hand, the acute toxicity of the vanadyl sulfate (VOSO4) is contemplated under similar conditions on animals divided into 7 groups of 10 animals to which the following doses have been administered: 300, 400, 500, 600, 800, 1000 and 1500 mg/kg.
# The lethal dose (LD50) has been calculated by the method of […] AND WILCOXON.
# diabetic rats [4] = conditions: cited from earlier work
# [5] = 45 mg/kg compound (II) or equimolar vanadyl sulfate
molecule,measurement,setting,value
[O]=[V]([O-])([O-])[O-] [vanadate],effect on Na+/K+ ATPase,Na^+ /K^+ ATP ase enzyme,inhibiting the Na^+ /K^+ ATP ase enzyme
[O]=[V+2] [vanadyl (V^4+)],effect on phosphorylation of the insulin receptor,insulin receptor,facilitating or inducing the phosphorylation of the insulin receptor
O=S(=O)([O-])[O-].[O]=[V+2] [vanadyl sulfate],duration of the drop of glycemia,diabetic rats [1]; [5],≤ 2 h
same,effect on glycemia,diabetic rats [1]; [5],weaker and transitory decrease of the glycemia
same,maximal decrease of glycemia,diabetic rats [1]; vanadyl sulfate equimolar to 45 mg/kg of compound (II),about 1 g/l
same,acute toxicity,diabetic rats [2]; diabetic rats,presents an acute toxicity
same,anti-diabetic effect in diabetic rats,diabetic rats [2],has an anti-diabetic effect
same,signs of toxicity at the higher doses,"[3]; 800, 1000 and 1500 mg/kg",an hypothermia and cases of chromodacryorrhoea
same,dose of first signs of toxicity,[3]; unique administration,400 mg/kg
same,LD50,"[3]; unique administration, 20160 min",600 mg/kg
same,signs of toxicity,"[3]; unique administration, general and from 400 mg/kg","diarrhoea with a variable seriousness, a decrease of the motor activity and a loss of flesh"
sodium vanadate,effect on cardiac function impairment associated to diabetes,"diabetic rats [4]; in drink water, diabetic rats",the impairing of the cardiac function associated to diabetes is prevented
same,effect on glycemia of diabetic rats,"diabetic rats [4]; in drink water, diabetic rats",the glycemia of the rats is normalized
same,"anti-diabetic effect, taken orally",diabetic rats [4]; oral,has an anti-diabetic effect
